Laboratory results: ChEMBL document CHEMBL4507291 (2021)

How the values were obtained:
[1] = target: Phosphatidylinositol 4,5-bisphosphate 3-kinase catalytic subunit beta isoform (Homo sapiens) (UniProt P42338)
[2] = target: Rhodopsin kinase GRK1 (Homo sapiens) (UniProt Q15835)
[3] = target: Delta-type opioid receptor (Homo sapiens) (UniProt P41143); conditions: Compound concentration 10.0 uM
[4] = target: SRSF protein kinase 2 (Homo sapiens) (UniProt P78362)
[5] = target: Serine/threonine-protein kinase 32A (Homo sapiens) (UniProt Q8WU08)
[6] = target: Epidermal growth factor receptor (Homo sapiens) (UniProt P00533)
[7] = target: Receptor-type tyrosine-protein kinase FLT3 (Homo sapiens) (UniProt P36888)
[8] = target: Serine/threonine-protein kinase PLK1 (Homo sapiens) (UniProt P53350)
[9] = target: Serine/threonine-protein kinase 36 (Homo sapiens) (UniProt Q9NRP7)
[10] = test system: Tyrosine-protein kinase ABL1 (Homo sapiens), P00519 [Q252H]
[11] = target: Atypical kinase COQ8A, mitochondrial (Homo sapiens) (UniProt Q8NI60)
[12] = target: Dual serine/threonine and tyrosine protein kinase (Homo sapiens) (UniProt Q6XUX3)
[13] = target: Dual specificity mitogen-activated protein kinase kinase 7 (Homo sapiens) (UniProt O14733)
[14] = target: T1, Homeodomain-interacting protein kinase 4 (Homo sapiens) (UniProt Q8NE63)
T1 sequence (whole entry): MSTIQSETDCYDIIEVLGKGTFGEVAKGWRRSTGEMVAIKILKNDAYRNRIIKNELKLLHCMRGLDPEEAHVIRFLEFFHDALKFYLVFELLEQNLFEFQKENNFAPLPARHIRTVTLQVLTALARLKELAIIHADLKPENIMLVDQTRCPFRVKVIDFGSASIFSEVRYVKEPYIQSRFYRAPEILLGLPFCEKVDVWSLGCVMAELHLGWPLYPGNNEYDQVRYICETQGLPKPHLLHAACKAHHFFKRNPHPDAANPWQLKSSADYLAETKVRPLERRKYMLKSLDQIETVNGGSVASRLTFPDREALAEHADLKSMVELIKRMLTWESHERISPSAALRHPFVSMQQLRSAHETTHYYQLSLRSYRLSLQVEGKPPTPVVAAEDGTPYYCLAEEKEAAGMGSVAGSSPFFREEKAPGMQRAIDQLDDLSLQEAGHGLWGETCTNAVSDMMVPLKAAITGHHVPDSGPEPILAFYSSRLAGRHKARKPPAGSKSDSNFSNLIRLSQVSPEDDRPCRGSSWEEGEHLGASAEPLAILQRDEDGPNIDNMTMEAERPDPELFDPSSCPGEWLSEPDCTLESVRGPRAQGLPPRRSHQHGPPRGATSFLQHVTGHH

[15] = target: Activated CDC42 kinase 1 (Homo sapiens) (UniProt Q07912)
[16] = target: Cyclin-dependent kinase 8 (Homo sapiens) (UniProt P49336)
[17] = target: Casein kinase I isoform alpha (Homo sapiens) (UniProt P48729)
[18] = target: Tyrosine-protein kinase receptor UFO (Homo sapiens) (UniProt P30530)
[19] = target: Cyclin-dependent kinase 11A (Homo sapiens) (UniProt Q9UQ88)
[20] = target: Serine/threonine-protein kinase MRCK beta (Homo sapiens) (UniProt Q9Y5S2)
[21] = target: Serine/threonine-protein kinase Nek4 (Homo sapiens) (UniProt P51957)
[22] = target: Serine/threonine-protein kinase WNK3 (Homo sapiens) (UniProt Q9BYP7)
[23] = target: Phosphatidylinositol 5-phosphate 4-kinase type-2 gamma (Homo sapiens) (UniProt Q8TBX8)
[24] = target: T2, Discoidin domain-containing receptor 2 (Homo sapiens) (UniProt Q16832)
T2 sequence (whole entry): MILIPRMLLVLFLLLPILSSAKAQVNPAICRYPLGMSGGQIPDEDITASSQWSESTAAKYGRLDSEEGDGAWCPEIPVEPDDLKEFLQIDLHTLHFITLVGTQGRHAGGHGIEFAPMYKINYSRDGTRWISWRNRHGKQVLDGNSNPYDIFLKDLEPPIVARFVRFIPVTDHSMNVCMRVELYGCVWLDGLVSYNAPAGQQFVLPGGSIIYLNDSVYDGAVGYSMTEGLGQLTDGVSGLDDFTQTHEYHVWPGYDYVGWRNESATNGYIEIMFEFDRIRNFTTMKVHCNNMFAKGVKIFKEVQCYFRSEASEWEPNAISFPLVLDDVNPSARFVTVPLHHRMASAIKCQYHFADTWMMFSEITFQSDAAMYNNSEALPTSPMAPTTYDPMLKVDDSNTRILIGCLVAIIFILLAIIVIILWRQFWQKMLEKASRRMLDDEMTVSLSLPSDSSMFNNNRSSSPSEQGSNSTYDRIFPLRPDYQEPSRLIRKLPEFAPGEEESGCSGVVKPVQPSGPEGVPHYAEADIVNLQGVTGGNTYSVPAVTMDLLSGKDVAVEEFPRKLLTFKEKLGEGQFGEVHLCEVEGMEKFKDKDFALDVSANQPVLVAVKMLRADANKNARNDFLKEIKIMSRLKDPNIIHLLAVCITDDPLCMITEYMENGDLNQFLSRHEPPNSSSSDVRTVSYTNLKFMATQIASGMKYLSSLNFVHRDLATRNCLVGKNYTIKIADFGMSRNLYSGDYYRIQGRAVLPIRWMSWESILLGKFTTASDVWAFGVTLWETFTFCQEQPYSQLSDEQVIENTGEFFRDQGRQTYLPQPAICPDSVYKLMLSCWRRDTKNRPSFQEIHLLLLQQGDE

[25] = target: Serine/threonine-protein kinase Nek3 (Homo sapiens) (UniProt P51956)
[26] = Compound concentration 1000.0 nM
[27] = Compound concentration 100.0 nM

Tyrosine-protein kinase receptor UFO (Homo sapiens), sequence (P30530 whole entry): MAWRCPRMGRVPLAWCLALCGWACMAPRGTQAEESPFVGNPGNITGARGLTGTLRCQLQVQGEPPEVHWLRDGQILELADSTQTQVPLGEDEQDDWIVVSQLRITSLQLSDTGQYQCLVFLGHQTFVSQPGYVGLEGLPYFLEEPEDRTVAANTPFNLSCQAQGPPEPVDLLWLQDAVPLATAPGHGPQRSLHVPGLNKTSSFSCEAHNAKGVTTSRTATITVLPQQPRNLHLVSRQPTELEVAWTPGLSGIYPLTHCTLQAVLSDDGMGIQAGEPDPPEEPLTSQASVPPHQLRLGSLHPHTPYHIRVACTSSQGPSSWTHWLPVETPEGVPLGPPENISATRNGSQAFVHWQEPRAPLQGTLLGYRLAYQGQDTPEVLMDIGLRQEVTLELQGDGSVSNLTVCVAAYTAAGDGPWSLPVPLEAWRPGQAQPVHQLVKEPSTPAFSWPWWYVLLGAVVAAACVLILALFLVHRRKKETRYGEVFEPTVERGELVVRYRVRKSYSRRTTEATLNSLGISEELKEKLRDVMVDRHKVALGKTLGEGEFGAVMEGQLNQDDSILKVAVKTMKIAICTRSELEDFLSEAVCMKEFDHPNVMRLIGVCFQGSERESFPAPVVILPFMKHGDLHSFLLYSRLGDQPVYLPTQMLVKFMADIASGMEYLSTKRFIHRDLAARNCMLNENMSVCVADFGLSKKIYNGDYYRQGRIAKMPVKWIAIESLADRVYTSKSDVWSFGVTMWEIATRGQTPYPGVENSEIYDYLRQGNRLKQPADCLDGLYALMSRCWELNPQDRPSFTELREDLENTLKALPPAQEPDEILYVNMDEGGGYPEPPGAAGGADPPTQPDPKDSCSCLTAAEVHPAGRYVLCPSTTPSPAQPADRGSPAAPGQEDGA
Phosphatidylinositol 4,5-bisphosphate 3-kinase catalytic subunit beta isoform (Homo sapiens), sequence (P42338 whole entry, looked up, canonical isoform): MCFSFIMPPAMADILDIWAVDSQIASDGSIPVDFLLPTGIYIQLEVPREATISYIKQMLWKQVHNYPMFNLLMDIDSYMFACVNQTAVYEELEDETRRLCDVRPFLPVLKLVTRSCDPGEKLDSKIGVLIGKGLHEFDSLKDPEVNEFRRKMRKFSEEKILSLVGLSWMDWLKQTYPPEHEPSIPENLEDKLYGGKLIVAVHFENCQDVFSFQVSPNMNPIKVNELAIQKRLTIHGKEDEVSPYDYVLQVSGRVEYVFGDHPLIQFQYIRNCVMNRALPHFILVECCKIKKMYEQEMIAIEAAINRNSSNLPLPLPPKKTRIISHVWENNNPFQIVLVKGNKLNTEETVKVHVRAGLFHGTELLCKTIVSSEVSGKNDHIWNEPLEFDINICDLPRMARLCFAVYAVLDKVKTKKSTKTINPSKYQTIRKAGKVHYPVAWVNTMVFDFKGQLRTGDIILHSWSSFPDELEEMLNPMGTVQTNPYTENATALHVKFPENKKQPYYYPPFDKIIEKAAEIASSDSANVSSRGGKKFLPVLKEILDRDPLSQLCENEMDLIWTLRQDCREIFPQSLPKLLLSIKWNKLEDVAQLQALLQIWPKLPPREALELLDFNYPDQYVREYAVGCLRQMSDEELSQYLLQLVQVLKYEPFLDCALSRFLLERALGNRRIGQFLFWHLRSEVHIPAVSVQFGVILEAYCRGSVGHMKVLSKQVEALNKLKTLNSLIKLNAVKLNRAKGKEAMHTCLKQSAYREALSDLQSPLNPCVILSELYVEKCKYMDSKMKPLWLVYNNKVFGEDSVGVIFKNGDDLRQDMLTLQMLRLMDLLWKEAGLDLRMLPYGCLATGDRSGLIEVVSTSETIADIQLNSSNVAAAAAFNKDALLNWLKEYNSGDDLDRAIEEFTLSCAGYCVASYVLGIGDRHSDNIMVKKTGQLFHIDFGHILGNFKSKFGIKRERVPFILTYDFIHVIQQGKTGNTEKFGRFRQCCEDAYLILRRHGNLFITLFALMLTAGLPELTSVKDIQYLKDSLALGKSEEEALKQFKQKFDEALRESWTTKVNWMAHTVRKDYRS
Dual specificity mitogen-activated protein kinase kinase 7 (Homo sapiens), sequence (O14733 whole entry): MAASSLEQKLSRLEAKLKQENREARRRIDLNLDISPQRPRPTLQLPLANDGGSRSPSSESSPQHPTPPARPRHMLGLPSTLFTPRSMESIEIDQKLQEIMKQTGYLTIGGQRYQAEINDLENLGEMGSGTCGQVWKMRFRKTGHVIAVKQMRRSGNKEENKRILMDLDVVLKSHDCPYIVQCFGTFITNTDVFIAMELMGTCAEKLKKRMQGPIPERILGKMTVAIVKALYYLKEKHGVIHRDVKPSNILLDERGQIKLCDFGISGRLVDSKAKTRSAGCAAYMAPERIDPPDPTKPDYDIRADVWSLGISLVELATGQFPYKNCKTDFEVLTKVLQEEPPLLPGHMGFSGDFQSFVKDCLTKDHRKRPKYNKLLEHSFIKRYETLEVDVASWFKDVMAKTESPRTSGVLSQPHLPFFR
Serine/threonine-protein kinase PLK1 (Homo sapiens), sequence (P53350 whole entry): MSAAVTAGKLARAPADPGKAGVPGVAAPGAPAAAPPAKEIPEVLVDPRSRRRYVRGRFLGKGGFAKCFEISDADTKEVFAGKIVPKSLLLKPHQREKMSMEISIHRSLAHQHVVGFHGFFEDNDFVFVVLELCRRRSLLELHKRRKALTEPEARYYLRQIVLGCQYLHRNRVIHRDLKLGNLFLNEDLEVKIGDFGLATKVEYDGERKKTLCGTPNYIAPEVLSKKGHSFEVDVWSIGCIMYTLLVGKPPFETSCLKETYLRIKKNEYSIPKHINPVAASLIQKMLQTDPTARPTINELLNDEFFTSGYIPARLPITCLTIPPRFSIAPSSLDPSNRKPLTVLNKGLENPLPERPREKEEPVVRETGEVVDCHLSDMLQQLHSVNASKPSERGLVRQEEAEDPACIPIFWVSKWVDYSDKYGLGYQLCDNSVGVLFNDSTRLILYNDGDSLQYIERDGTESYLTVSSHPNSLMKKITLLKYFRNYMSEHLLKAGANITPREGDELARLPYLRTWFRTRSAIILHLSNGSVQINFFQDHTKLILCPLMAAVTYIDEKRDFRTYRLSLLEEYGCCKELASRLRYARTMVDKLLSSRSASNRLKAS
Epidermal growth factor receptor (Homo sapiens), sequence (P00533 whole entry): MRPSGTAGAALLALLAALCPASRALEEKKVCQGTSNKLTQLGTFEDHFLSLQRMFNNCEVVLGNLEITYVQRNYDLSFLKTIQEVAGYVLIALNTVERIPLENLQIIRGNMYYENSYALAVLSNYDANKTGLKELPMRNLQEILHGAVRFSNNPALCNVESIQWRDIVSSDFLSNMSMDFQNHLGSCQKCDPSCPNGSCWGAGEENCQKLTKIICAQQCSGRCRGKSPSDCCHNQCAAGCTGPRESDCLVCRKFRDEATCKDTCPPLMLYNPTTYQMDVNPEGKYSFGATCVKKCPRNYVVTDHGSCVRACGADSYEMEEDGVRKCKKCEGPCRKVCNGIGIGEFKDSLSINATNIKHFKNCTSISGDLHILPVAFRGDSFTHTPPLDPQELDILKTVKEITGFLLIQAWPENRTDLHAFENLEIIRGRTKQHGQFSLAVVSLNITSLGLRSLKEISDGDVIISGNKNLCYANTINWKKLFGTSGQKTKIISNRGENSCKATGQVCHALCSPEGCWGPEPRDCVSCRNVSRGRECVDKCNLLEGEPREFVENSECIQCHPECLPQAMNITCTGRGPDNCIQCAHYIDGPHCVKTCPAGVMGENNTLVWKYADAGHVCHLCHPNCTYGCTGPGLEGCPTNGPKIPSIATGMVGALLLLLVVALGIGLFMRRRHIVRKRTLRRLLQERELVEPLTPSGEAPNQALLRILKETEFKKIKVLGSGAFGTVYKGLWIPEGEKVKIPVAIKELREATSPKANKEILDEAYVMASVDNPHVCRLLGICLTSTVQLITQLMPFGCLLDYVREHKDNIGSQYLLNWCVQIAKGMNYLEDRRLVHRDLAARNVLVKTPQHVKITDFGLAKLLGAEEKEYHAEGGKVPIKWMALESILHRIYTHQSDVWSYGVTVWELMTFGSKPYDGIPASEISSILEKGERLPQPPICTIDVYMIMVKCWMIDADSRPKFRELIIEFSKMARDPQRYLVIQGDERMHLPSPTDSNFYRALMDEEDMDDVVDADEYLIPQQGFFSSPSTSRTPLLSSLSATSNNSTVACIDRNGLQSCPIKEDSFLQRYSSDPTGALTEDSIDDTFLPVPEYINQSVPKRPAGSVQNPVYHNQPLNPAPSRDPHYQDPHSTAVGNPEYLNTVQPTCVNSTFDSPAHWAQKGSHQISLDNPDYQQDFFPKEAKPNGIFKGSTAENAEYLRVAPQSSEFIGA
Casein kinase I isoform alpha (Homo sapiens), sequence (P48729 2-337 limits assumed): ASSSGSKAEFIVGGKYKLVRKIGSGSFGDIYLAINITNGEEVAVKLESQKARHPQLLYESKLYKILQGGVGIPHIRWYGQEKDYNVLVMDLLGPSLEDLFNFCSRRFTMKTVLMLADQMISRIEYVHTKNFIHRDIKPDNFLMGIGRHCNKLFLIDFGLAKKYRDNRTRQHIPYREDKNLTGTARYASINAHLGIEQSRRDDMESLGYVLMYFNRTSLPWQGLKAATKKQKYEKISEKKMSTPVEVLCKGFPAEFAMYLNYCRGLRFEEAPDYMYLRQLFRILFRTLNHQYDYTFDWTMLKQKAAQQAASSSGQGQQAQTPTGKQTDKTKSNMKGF
Serine/threonine-protein kinase 32A (Homo sapiens), sequence (Q8WU08 whole entry): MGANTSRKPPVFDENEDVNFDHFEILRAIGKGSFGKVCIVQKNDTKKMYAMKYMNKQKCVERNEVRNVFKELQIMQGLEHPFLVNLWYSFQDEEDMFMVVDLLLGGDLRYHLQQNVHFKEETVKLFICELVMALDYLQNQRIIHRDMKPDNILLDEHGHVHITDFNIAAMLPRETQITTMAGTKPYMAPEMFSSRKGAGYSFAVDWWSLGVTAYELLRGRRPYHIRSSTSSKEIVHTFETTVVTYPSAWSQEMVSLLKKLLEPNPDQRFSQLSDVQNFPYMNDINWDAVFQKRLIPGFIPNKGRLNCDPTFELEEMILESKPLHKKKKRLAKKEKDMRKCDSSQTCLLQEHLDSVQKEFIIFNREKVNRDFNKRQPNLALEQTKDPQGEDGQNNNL

C[C@@H]1CN(c2cc(-c3nn(C)c4ccc(OC5(C)CC5)cc34)ncn2)C[C@H](C)O1 [MLi-2-NC]
inactive: residual activity [1, 26] 100% | residual activity [2, 26] 100% | inhibition [3] 23.3% | residual activity [4, 26] 88% | residual activity [5, 26] 78% | residual activity [6, 26] 97% | residual activity [7, 26] 96% | residual activity [8, 26] 74% | residual activity [9, 26] 93% | residual activity [10, 26] 93% | residual activity [11, 26] 100% | residual activity [12, 26] 67% | residual activity [13, 26] 74% | residual activity [14, 26] 79% | residual activity [15, 26] 96% | residual activity [16, 26] 100% | residual activity [17, 26] 100% | residual activity [18, 26] 100% | residual activity [19, 26] 100% | residual activity [20, 26] 100% | residual activity [21, 26] 60% | residual activity [22, 26] 91% | residual activity [23, 26] 98% | residual activity [24, 26] 79% | residual activity [25, 26] 99%

C[C@@H]1CN(c2cc(-c3n[nH]c4ccc(OC5(C)CC5)cc34)ncn2)C[C@H](C)O1 [MLi-2]
inactive: residual activity [1, 27] 59% | residual activity [2, 27] 83% | inhibition [3] 6.66% | residual activity [4, 27] 79% | residual activity [5, 27] 92% | residual activity [6, 27] 76% | residual activity [7, 27] 99% | residual activity [8, 27] 68% | residual activity [9, 27] 86% | residual activity [10, 27] 100% | residual activity [11, 27] 85% | residual activity [12, 27] 77% | residual activity [13, 27] 77% | residual activity [14, 27] 97% | residual activity [15, 27] 79% | residual activity [16, 27] 63% | residual activity [17, 27] 73% | residual activity [18, 27] 100% | residual activity [19, 27] 93% | residual activity [20, 27] 93% | residual activity [21, 27] 84% | residual activity [22, 27] 73% | residual activity [23, 27] 90% | residual activity [24, 27] 82% | residual activity [25, 27] 76%
